Experimental findings from US20250171461A1, “STIMULATOR OF INTERFERON GENES (STING) MODULATORS, AND COMPOSITIONS AND METHODS THEREOF” (Geode Therapeutics Inc., priority 2022, published 2025) are described below.

The structures appear in SMILES notation.

One test concerns the target T1, hERG channel (Homo sapiens, UniProt Q12809).
T1 construct: host or cells: HEK 293
The test can be described thus: hERG safety evaluation, manual whole cell patch clamp in hERG-expressing HEK 293 cells. The test is classed as cell-based. To be noted: hERG stably expressed HEK 293 cells, tail current, whole cell recording. On the procedure:
(1) hERG stably expressed HEK 293 cell line (#60187) was purchased from BPS Bioscience and P3-P20 were used for the study. Cells were cultured in medium containing: 90% MEM, 10% FBS, 0.1 mM NEAA, 100 U/mL Penicillin-Streptomycin, 1 mM Na pyruvate and 500 μg/mL Geneticin. Cells are split about three times a week, and maintained between ˜40% to ˜80% confluence. 24 to 48 hours prior to recordings, the cells were plated on 0.05 mg/mL PDL pre-coated glass cover slips placed in 48-well plate at 1×10^4 cells. (2) The number of cells being plated on the cover slip should reach a confluence rate at which majority of the cells are single. (1) Test compounds were initially prepared in DMSO with final concentration of 10 mM as stock solution. (2) Compound was first made into 10, 3, 1, 0.3 and 0.1 mM DMSO stock, then serial diluted into the desired test concentrations in the extracellular solution (ECs). 30 uM test solution was diluted from 10 mM DMSO stock. The final DMSO concentration was in range of 0.1-0.3%. HEKA EPC 10 USB patch clamp amplifier (from HEKA Elektronik, Germany) was used in the whole cell recording. A cover slip with plenty of single HEK293 hERG cells on the surface was removed and placed into a continuously perfused (approximately 1 ml/minute) recording chamber mounted on an inverted microscope. HERG channel currents were recorded from single cells using standard whole cell recording techniques. The cells were voltage clamped at a holding potential of −80 mV. Then hERG current was activated by depolarizing at +30 mV for 5000 ms, after which the current was taken back to −50 mV for 5000 ms to remove the inactivation and observe the deactivating tail current. The K+ tail current through HERG channels observed during this step was allowed to stabilize under continuous bath perfusion. Cells were then superfused with drug until steady state block was achieved. Steady state was considered reached when three consecutive super-imposable current records were collected. At this point, cells were once again superfused with extracellular solution until the current amplitude returned to values close to those measured before application of drug. (1) Percent current inhibition was calculated using the following equation. (Note: PatchMaster was used to extract the peak current from the original data.) (2) The dose response curve of test compounds was plotted with % inhibition against the concentration of test compounds using Graphpad Prism 9.0, and fit the data to a log(inhibitor) vs. response—Variable slope curve.
A general note: Block of hERG is tested as a sign of cardiac risk.

Test [1] addresses T2, human HAQ STING isoform (hSTING HAQ) (Homo sapiens, UniProt Q86WV6, G230A/H232R/R293Q/R71H).
T2 construct: THP1 cells express the naturally occurring human HAQ STING isoform (hSTING HAQ); host or cells: THP1
The test can be described thus: IFN-β mRNA level in THP1 cells (qPCR, STING agonist cellular activity). The settings on record: compound at 3.6 μM, 2 hrs, IFNβ expression normalized against GAPDH by the 2^-ΔΔCT method, DMSO = 1.0. The test is classed as cell-based. A digest of the protocol:
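THP1 cells were seeded at 9×10^5 per well, incubated overnight, then treated with compound at 3.6 μM final (0.1% DMSO control) for 2 hrs at 37 °C. IFN-β mRNA was measured by SYBR Green qPCR, normalised to GAPDH by the 2^−ΔΔCT method, in triplicate.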
A general note: In qPCR the cycle at which signal appears reflects the starting amount.

T2 sequence (Q86WV6 whole entry R71H/G230A/H232R/R293Q, canonical isoform): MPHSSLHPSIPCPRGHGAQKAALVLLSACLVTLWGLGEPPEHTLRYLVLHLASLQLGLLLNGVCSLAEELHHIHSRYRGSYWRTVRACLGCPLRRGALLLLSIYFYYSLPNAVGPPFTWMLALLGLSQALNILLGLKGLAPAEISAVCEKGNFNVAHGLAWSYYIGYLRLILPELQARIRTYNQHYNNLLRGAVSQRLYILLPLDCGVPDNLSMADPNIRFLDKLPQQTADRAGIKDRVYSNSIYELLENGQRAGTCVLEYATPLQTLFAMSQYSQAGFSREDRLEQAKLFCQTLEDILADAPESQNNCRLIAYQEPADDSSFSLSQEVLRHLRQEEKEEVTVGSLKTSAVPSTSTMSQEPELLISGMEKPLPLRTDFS
T1 sequence (Q12809 whole entry): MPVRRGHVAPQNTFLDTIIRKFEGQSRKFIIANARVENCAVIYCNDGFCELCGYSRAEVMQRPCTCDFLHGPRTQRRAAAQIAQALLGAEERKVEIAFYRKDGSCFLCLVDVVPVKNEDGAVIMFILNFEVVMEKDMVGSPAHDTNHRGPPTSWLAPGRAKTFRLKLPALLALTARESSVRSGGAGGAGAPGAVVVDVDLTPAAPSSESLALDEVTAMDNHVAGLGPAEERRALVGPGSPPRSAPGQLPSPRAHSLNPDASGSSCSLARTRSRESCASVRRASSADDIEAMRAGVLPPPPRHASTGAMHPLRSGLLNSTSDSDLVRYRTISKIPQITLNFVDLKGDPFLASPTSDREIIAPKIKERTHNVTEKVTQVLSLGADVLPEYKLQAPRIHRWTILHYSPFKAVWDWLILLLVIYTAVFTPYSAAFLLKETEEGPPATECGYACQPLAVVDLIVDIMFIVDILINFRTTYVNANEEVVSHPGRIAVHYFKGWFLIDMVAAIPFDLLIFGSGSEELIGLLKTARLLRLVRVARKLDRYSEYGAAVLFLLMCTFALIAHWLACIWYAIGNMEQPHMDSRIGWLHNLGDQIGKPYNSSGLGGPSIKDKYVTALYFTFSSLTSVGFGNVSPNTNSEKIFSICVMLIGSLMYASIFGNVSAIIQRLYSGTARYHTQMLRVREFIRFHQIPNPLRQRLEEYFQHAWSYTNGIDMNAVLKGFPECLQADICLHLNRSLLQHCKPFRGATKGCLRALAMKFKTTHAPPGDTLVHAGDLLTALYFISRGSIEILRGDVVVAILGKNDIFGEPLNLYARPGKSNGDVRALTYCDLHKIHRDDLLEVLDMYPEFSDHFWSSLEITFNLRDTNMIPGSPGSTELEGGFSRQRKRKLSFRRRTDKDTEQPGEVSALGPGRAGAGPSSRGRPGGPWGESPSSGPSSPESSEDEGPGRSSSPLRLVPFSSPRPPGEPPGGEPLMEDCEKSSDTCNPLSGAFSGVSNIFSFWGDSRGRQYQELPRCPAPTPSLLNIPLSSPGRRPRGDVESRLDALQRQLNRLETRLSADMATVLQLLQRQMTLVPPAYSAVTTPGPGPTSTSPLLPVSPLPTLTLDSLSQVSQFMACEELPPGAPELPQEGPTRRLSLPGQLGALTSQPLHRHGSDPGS

The term IC50 denotes the concentration at which inhibition is half-maximal. Higher therefore signals weaker potency in that assay. The compound `COc1cc(CN(Cc2cn3c4c(c(F)c(F)cc4c2=O)OCC3C(C)C)[C@H]2CCCN(c3ccc(N)nc3)C2)ccn1` (stereo partly drawn) [Compound 53, 6-((((S)-1-(6-aminopyridin-3-yl)piperidin-3-yl)((2-methoxypyridin-4-yl)methyl)amino)methyl)-9,10-difluoro-3-isopropyl-2H-[1,4]oxazino[2,3,4-ij]quinolin-7(3H)-one] registered an IC50 at hERG channel of 1.27 µM. The “Relative mRNA INFβ/GAPDH THP 1” value in test [1] is on record as 433.0.
For `COc1cc(CN(Cc2cn3c4c(c(F)c(F)cc4c2=O)OCC3)[C@H]2CCCN(c3ccc(N)nc3)C2)ccn1` [Compound 66, (S)-6-(((1-(6-aminopyridin-3-yl)piperidin-3-yl)((2-methoxypyridin-4-yl)methyl)amino)methyl)-9,10-difluoro-2,3-dihydro-7H-[1,4]oxazino[2,3,4-ij]quinolin-7-one], in that order: 2.72 µM and 7328.8.
The corresponding values for `COc1cc(CN(Cc2cn3c4c(c(F)c(F)cc4c2=O)CCC3)[C@H]2CCCN(c3ccc(N)nc3)C2)ccn1` [Compound 67, (S)-2-(((1-(6-aminopyridin-3-yl)piperidin-3-yl)((2-methoxypyridin-4-yl)methyl)amino)methyl)-8,9-difluoro-6,7-dihydro-1H,5H-pyrido[3,2,1-ij]quinolin-1-one] are 3.08 µM and 7398.9.
`COc1cc(CN(Cc2cn3c4c(c(F)c(F)cc4c2=O)SCC3)[C@H]2CCCN(c3ccc(N)nc3)C2)ccn1` [Compound 69, 9,10-difluoro-6-({[(3S)-1-(6-aminopyridin-3-yl)hexahydropyridin-3-yl][(2-methoxypyridin-4-yl)methyl]amino}methyl)-3,7-dihydro-2H-[1,4]thiazino[2,3,4-ij]quinolin-7-one]: the IC50 at hERG channel worked out at 1.94 µM. Further, the “Relative mRNA INFβ/GAPDH THP 1” value in test [1] was determined as 9547.9.
`COCC1COc2c(F)c(F)cc3c(=O)c(CN(Cc4ccnc(OC)c4)[C@H]4CCCN(c5ccc(N)nc5)C4)cn1c23` (stereo partly drawn) [Compound 82, 6-((((S)-1-(6-aminopyridin-3-yl)piperidin-3-yl)((2-methoxypyridin-4-yl)methyl)amino)methyl)-9,10-difluoro-3-(methoxymethyl)-2,3-dihydro-7H-[1,4]oxazino[2,3,4-ij]quinolin-7-one] showed an IC50 against hERG channel of 3.14 µM. In addition, the “Relative mRNA INFβ/GAPDH THP 1” value in test [1] turned out to be 349.0.
